Columns and labels:
[1] = 100.5 kPa, Liquid
[2] = xn = mol fraction of the nth substance listed; details: 100.5 kPa, Liquid, x2 = 0

CC(=O)OCc1ccccc1 [benzyl ethanoate]
[1]
Details | mass density [kg/m3]
288.15 K | 1060.11
298.15 K | 1050.75
308.15 K | 1041.39
318.15 K | 1032.03

[1], Capillary tube (Ostwald / Ubbelohde) method
Details | viscosity [mPa·s]
288.15 K | 2.53
298.15 K | 2.056
308.15 K | 1.703
318.15 K | 1.432

CCC(=O)OCc1ccccc1 [benzyl propanoate]
[1]
Details | mass density [kg/m3]
288.15 K | 1036.86
298.15 K | 1027.6
308.15 K | 1018.38
318.15 K | 1009.15

[1], Capillary tube (Ostwald / Ubbelohde) method
Details | viscosity [mPa·s]
288.15 K | 2.55
298.15 K | 2.123
308.15 K | 1.787
318.15 K | 1.515

CCO [ethanol]
[1]
Details | mass density [kg/m3]
288.15 K | 793.6
298.15 K | 785
308.15 K | 776.31
318.15 K | 767.44

[1], Capillary tube (Ostwald / Ubbelohde) method
Details | viscosity [mPa·s]
288.15 K | 1.337
298.15 K | 1.105
308.15 K | 0.921
318.15 K | 0.771

CCO [ethanol] + CC(=O)OCc1ccccc1
[2], Capillary tube (Ostwald / Ubbelohde) method
Details | viscosity [mPa·s]
288.15 K | 1.337
298.15 K | 1.105
308.15 K | 0.921
318.15 K | 0.771

[2]
Details | mass density [kg/m3]
288.15 K | 793.6
298.15 K | 785
308.15 K | 776.31
318.15 K | 767.44

CCO [ethanol] + CCC(=O)OCc1ccccc1
[2], Capillary tube (Ostwald / Ubbelohde) method
Details | viscosity [mPa·s]
288.15 K | 1.337
298.15 K | 1.105
308.15 K | 0.921
318.15 K | 0.771

[2]
Details | mass density [kg/m3]
288.15 K | 793.6
298.15 K | 785
308.15 K | 776.31
318.15 K | 767.44

CCO [ethanol] + CCOC(=O)CC(C)=O
[2], Capillary tube (Ostwald / Ubbelohde) method
Details | viscosity [mPa·s]
288.15 K | 1.337
298.15 K | 1.105
308.15 K | 0.921
318.15 K | 0.771

[2]
Details | mass density [kg/m3]
288.15 K | 793.6
298.15 K | 785
308.15 K | 776.31
318.15 K | 767.44

CCO [ethanol] + CCOC(=O)CC(C)C
[2], Capillary tube (Ostwald / Ubbelohde) method
Details | viscosity [mPa·s]
288.15 K | 1.337
298.15 K | 1.105
308.15 K | 0.921
318.15 K | 0.771

[2]
Details | mass density [kg/m3]
288.15 K | 793.6
298.15 K | 785
308.15 K | 776.31
318.15 K | 767.44

CCO [ethanol] + CCOC(=O)c1ccccc1O
[2]
Details | mass density [kg/m3] | viscosity [mPa·s]
288.15 K | 793.6 | 1.337
298.15 K | 785 | 1.105
308.15 K | 776.31 | 0.921
318.15 K | 767.44 | 0.771

CCO [ethanol] + COC(=O)c1ccccc1
[2], Capillary tube (Ostwald / Ubbelohde) method
Details | viscosity [mPa·s]
288.15 K | 1.337
298.15 K | 1.105
308.15 K | 0.921
318.15 K | 0.771

[2]
Details | mass density [kg/m3]
288.15 K | 793.6
298.15 K | 785
308.15 K | 776.31
318.15 K | 767.44

CCOC(=O)c1ccccc1O [ethyl 2-hydroxybenzoate]
[1]
Details | mass density [kg/m3] | viscosity [mPa·s]
288.15 K | 1134.72 | 3.694
298.15 K | 1125 | 2.831
308.15 K | 1115.29 | 2.253
318.15 K | 1105.6 | 1.842

CCOC(=O)CC(C)C [ethyl 3-methylbutanoate]
[1]
Details | mass density [kg/m3]
288.15 K | 869.66
298.15 K | 859.78
308.15 K | 849.83
318.15 K | 839.81

[1], Capillary tube (Ostwald / Ubbelohde) method
Details | viscosity [mPa·s]
288.15 K | 0.853
298.15 K | 0.739
308.15 K | 0.642
318.15 K | 0.566

CCOC(=O)CC(C)=O [ethyl 3-oxobutanoate]
[1]
Details | mass density [kg/m3]
288.15 K | 1033.92
298.15 K | 1023.45
308.15 K | 1013
318.15 K | 1002.54

[1], Capillary tube (Ostwald / Ubbelohde) method
Details | viscosity [mPa·s]
288.15 K | 1.902
298.15 K | 1.581
308.15 K | 1.344
318.15 K | 1.144

COC(=O)c1ccccc1 [methyl benzoate]
[1]
Details | mass density [kg/m3]
288.15 K | 1093.23
298.15 K | 1083.92
308.15 K | 1074.34
318.15 K | 1064.62

[1], Capillary tube (Ostwald / Ubbelohde) method
Details | viscosity [mPa·s]
288.15 K | 2.297
298.15 K | 1.851
308.15 K | 1.531
318.15 K | 1.297
